Measured values from patent publication US6355435B1, “Methods for detecting and enumerating Campylobacter jejuni in environmental samples and for identifying antibiotic-resistant strains” (priority 1999, dated 2002).

Legend:
[1] = system: Campylobacter jejuni with high-level ciprofloxacin resistance; details: gyrA codon 86 C to T transition; cited from earlier work
[2] = system: ciprofloxacin-resistant Campylobacter jejuni mutants (C to T transition in codon 86 of gyrA); experiment: Growth of selected mutants on BASB medium containing ciprofloxacin; format: cell-based; details: ciprofloxacin at 16 μg/ml; 12 Campylobacter mutants
[3] = system: Campylobacter jejuni strain cj49349; experiment: Growth on BASB agar supplemented with ciprofloxacin; format: cell-based; details: ciprofloxacin at 16 μg per ml; wild-type strain cj49349

Compound: O=C(O)c1cn(C2CC2)c2cc(N3CCNCC3)c(F)cc2c1=O [ciprofloxacin]
- MIC [1]: ≥ 16 µg/mL
- growth on BASB medium containing ciprofloxacin [2]: able to grow
- growth on BASB agar supplemented with ciprofloxacin [3]: unable to grow
